The subject of this assay is strain Mg Ref 1 of M. graminicola. Briefly: In vitro evaluation of the sensitivity level of M. graminicola towards epoxiconazole and folpet alone or in admixture (mycelial growth by optical density, 96-well microtitre plate, Wadley method). As to conditions: Zymoseptoria tritici, 168 h, fungicide used alone, 7 days, 19° C., OD 405 nm. The assay is classed as cell-based, Mycosphaerella graminicola. The method, then:
The Wadley method is well-known method for determining whether synergy exists. In the Wadley method, synergistic activity is determined from dose response curves. With this method, the efficacy of the active ingredient (“a.i.”) is determined by comparing the degree of fungal attack on treated plants with that on untreated, similarly inoculated and incubated check plants. Each a.i. is generally tested at multiple (e.g., 6) concentrations, and dose response curves are generated. The dose response curves are used to establish the EC50 (i.e., the effective concentration of a.i. providing 50% disease control) of the individual compounds as well as of the combinations (EC50observed). The experimentally found values of the mixture at a given weight ratio are compared ith the values that would have been found were only a complementary efficacy of the components was present (EC50 (A+B)expected). The EC50 (A+B)expected is generally calculated according to Wadley (Levi et al., EPPO-Bulletin 16, 1986, 651-657) or (Wadley, F. M., U.S. Dep. Agric., Res. Adm., Bur. Entomol. And Plant Quar. ET-223, 1945, 8) as follows:
EC50(A+B)expected−(a+b)/[(a/EC50(A)observed)+b/EC50(B)observed)] […]
The degree of mycelial growth in the liquid medium was assessed by measuring the optical density of the wells containing the spore suspensions and fungicide concentrations. […]

For `Fc1ccc([C@]2(Cn3cncn3)O[C@H]2c2ccccc2Cl)cc1` (racemic) [Epoxiconazole, (2RS;3SR)-1-[3-(2-chlorophenyl)-2,3-epoxy-2-(4-fluorophenyl)propyl]-1H-1,2,4-triazole], the EC50 was determined as 0.01 µg/mL. The same measure for `O=C1c2ccccc2C(=O)N1SC(Cl)(Cl)Cl` [Folpet, N-(trichloromethanesulfenyl)phthalimide]: 2.39 µg/mL.

What is called EC50 is the midpoint of the concentration-response curve.

The values are drawn from patent publication US20130190169A1, “SYNERGISTIC FUNGICIDAL COMBINATION” (priority 2010, published 2013).
